# Laboratory results reported in patent publication US20240148821A1, “PHARMACEUTICAL USE OF CYCLIC PEPTIDE COMPOUND” (CHUGAI SEIYAKU KABUSHIKI KAISHA, priority 2021, published 2024).
# pIC50: −log10 of the molar value. Numbered stars: 1 amine (or outer) side, 2 acyl side, 3 side chain; on linkers, the order of the positions; unused ones are H or OH. Bridge positions count the residues as written; N and C are the ends. Square brackets hold non-standard residues; d marks the D form. Peptide text beside a SMILES is read from it. * marks the point of attachment. hPhe(3,5-F2-4-CF3) = N[C@@H](CCc1cc(F)c(C(F)(F)F)c(F)c1)C(=O)O; X45 = CN([C@@H](CC=C1CN(C(=O)OC(C)(C)C)C1)C(=O)[*:2])[*:1]; hPhe(3-Cl-4-CF3) = N[C@@H](CCc1ccc(C(F)(F)F)c(Cl)c1)C(=O)O; hPhe(3-F,4-CF3) = N[C@@H](CCc1ccc(C(F)(F)F)c(F)c1)C(=O)O; NEtPhe(4-CF3) = CCN[C@@H](Cc1ccc(C(F)(F)F)cc1)C(=O)O; 3Oxa8azabicyclo(3.2.1)octane = C1CC2COCC1N2*; NMedβ3hAla = C[C@H](CC(=O)[*:2])N(C)[*:1]; NMeGly(cPent) = CN[C@H](C(=O)O)C1CCCC1; Pro(4,4-F2) = O=C(O)[C@@H]1CC(F)(F)CN1; X74 = CC(C)(O)C=CCN(CC(=O)[*:2])[*:1]; NMeCha = CN[C@@H](CC1CCCCC1)C(=O)O; Azetidine(3,3-F2) = FC1(F)CN(*)C1; NMehLeu = CN[C@@H](CCC(C)C)C(=O)O; NMeChg = CN[C@H](C(=O)O)C1CCCCC1; NMeI = CC[C@H](C)[C@H](NC)C(=O)O; NMeT = CN[C@H](C(=O)O)[C@@H](C)O; NMeE = CN[C@@H](CCC(=O)O)C(=O)O; NMeD = CN[C@@H](CC(=O)O)C(=O)O; NMeL = CN[C@@H](CC(C)C)C(=O)O; NMehSer = CN[C@@H](CCO)C(=O)O; NMeNle = CCCC[C@H](NC)C(=O)O; NMeNva = CCC[C@H](NC)C(=O)O; NMeV = CN[C@H](C(=O)O)C(C)C; d(β3hA) = C[C@@H](N)CC(=O)O; NMeS = CN[C@@H](CO)C(=O)O; Morpholide = C1CN(*)CCO1; NMeA = CN[C@@H](C)C(=O)O; Piperidide = C1CCN(*)CC1; Ac5c = NC1(C(=O)O)CCCC1; Aze = O=C(O)[C@@H]1CCN1; Ac4c = NC1(C(=O)O)CCC1; CH2CMe2OH = CC(C)(O)C*; NBuGly = CCCCNCC(=O)O; Aib = CC(C)(N)C(=O)O; Isopentyl = CC(C)CC*; NEtG = CCNCC(=O)O; Sar = CNCC(=O)O; Propyl = CCC*
# Molecular target: protein-protein interaction between Kras and SOS1 (biotin-tagged human Kras loaded with GDP, His-tagged human SOS1) (Homo sapiens (Human), UniProt P01116, G12D)
# Test: Protein-protein interaction inhibition between Kras and SOS1 (KrasG12D-SOS PPI) using AlphaScreen;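 also: kras produced in E. coli, Ni-coupled donor beads and streptavidin acceptor beads, excitation 680 nm with emission detected at 520–620 nm via singlet oxygen transfer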
# Format: biochemical
# Details: AlphaScreen; biotin-tagged human Kras loaded with GDP, His-tagged human SOS1; read-out: KRAS G12D-SOS PPI IC50
row,Compound,pIC50
1,CCC[C@H]1C(=O)N(C)[C@H](C(=O)N2CCCCC2)CC(=O)N(C)[C@@H](CC(C)C)C(=O)N[C@@H]([C@@H](C)CC)C(=O)N(C)[C@@H](C)C(=O)N2CC[C@H]2C(=O)N(C)[C@@H](CC2CCCCC2)C(=O)N(C)CC(=O)N[C@@H](CCc2ccc(C(F)(F)F)c(Cl)c2)C(=O)N2CCC[C@H]2C(=O)NC2(CCCC2)C(=O)N1C [Compound 995] ([NMeL]I[NMeA][Aze][NMeCha][Sar][hPhe(3-Cl-4-CF3)]P[Ac5c][NMeNva][NMeD]-Piperidide; lactam N-11),8.24
2,"CC[C@H](C)[C@@H]1NC(=O)[C@H](CC(C)C)N(C)C(=O)C[C@@H](C(=O)N2CCOCC2)N(C)C(=O)[C@H](C2CCCC2)N(C)C(=O)C2(CCCC2)NC(=O)[C@H](CCC(=O)N2CC(F)(F)C2)N(C)C(=O)[C@H](CCc2ccc(C(F)(F)F)c(Cl)c2)NC(=O)CN(C)C(=O)[C@H](CC2CCCCC2)N(C)C(=O)[C@@H]2CCN2C(=O)[C@H](C)N(C)C1=O [Compound 2098] ([NMeL]I[NMeA][Aze][NMeCha][Sar][hPhe(3-Cl-4-CF3)][NMeE](Azetidine(3,3-F2))[Ac5c][NMeGly(cPent)][NMeD]-Morpholide; lactam N-11)",8.10
3,"CCCOC[C@H]1C(=O)N(C)CC(=O)N[C@@H](CCc2ccc(C(F)(F)F)c(F)c2)C(=O)N2CCC[C@H]2C(=O)NC2(CCCC2)C(=O)N(C)[C@@H](C2CCCC2)C(=O)N(C)[C@H](C(=O)N2C3CCC2COC3)CC(=O)N(C)[C@@H](CC(C)C)C(=O)N[C@@H]([C@@H](C)CC)C(=O)N(C)[C@@H](C)C(=O)N2CC[C@H]2C(=O)N1C [Compound 1030] ([NMeL]I[NMeA][Aze][NMeS](Propyl)[Sar][hPhe(3-F,4-CF3)]P[Ac5c][NMeGly(cPent)][NMeD]-{3Oxa8azabicyclo(3.2.1)octane}; lactam N-11)",8.77
4,CC[C@H](C)[C@@H]1NC(=O)[C@H](CC(C)C)N(C)C(=O)C[C@@H](C)NC(=O)[C@H](CC(C)C)N(C)C(=O)C2(CCCC2)NC(=O)[C@H](COCC(C)(C)O)N(C)C(=O)[C@H](CCc2ccc(C(F)(F)F)c(Cl)c2)NC(=O)CN(C)C(=O)[C@H](COCCC(C)C)N(C)C(=O)CN(C)C(=O)CN(CC)C1=O [Compound 1464] (cyclo([Ac5c][NMeL][d(β3hA)][NMeL]I[NEtG][Sar][NMeS](Isopentyl)[Sar][hPhe(3-Cl-4-CF3)][NMeS](CH2CMe2OH))),6.72
5,"CC[C@H](C)[C@@H]1NC(=O)[C@H](CC(C)C)N(C)C(=O)C[C@@H](C(=O)N(C)C)N(C)C(=O)[C@H](C2CCCC2)N(C)C(=O)C2(CCCC2)NC(=O)[C@H](CC(=O)N(C)C)N(C)C(=O)[C@H](CCc2ccc(C(F)(F)F)c(Cl)c2)NC(=O)CN(C)C(=O)[C@H](CC2CCCCC2)N(C)C(=O)[C@@H]2CCN2C(=O)[C@H](C)N(C)C1=O [Compound 2106, (3S,6S,9S,13S,16S,22S,25S,31S,34S)-25-[2-[3-chloro-4-(trifluoromethyl)phenyl]ethyl]-31-(cyclohexylmethyl)-16-cyclopentyl-22-[2-(dimethylamino)-2-oxo-ethyl]-9-isobutyl-N,N,3,4,10,14,17,23,29,32-decamethyl-6-[(1S)-1-methylpropyl]-2,5,8,11,15,18,21,24,27,30,33-undecaoxo-spiro[1,4,7,10,14,17,20,23,26,29,32-undecazabicyclo[32.2.0]hexatriacontane-19,1-cyclopentane]-13-carboxamide] ([NMeL]I[NMeA][Aze][NMeCha][Sar][hPhe(3-Cl-4-CF3)][NMeD](NMe2)[Ac5c][NMeGly(cPent)][NMeD]-NMe2; lactam N-11)",8.70
6,CC[C@H](C)[C@@H]1NC(=O)[C@H](CC(C)C)N(C)C(=O)C[C@@H](C(=O)N2CCCCC2)N(C)C(=O)[C@H](C(C)C)N(C)C(=O)C2(CCCC2)NC(=O)[C@@H]2CCCN2C(=O)[C@H](CCc2ccc(C(F)(F)F)c(Cl)c2)NC(=O)CN(C)C(=O)[C@H](CC2CCCCC2)N(C)C(=O)[C@@H]2CCN2C(=O)[C@H]([C@@H](C)O)N(C)C1=O [Compound 496] ([NMeL]I[NMeT][Aze][NMeCha][Sar][hPhe(3-Cl-4-CF3)]P[Ac5c][NMeV][NMeD]-Piperidide; lactam N-11),8.00
7,"CC[C@H](C)[C@@H]1NC(=O)[C@H](CC(C)C)N(C)C(=O)C[C@@H](C(=O)N2CCCCC2)N(C)C(=O)[C@H](C2CCCCC2)N(C)C(=O)C2(CCCC2)NC(=O)CN(CC=CC(C)(C)O)C(=O)[C@H](CCc2ccc(C(F)(F)F)c(Cl)c2)NC(=O)CN(C)C(=O)[C@H](CC2CCCCC2)N(C)C(=O)CN(C)C(=O)CN(C)C1=O [Compound 2047, (11S,17S,26S,29S,33S,36S)-11-[2-[3-chloro-4-(trifluoromethyl)phenyl]ethyl]-36-cyclohexyl-17-(cyclohexylmethyl)-9-(4-hydroxy-4-methyl-pent-2-enyl)-29-isobutyl-15,18,21,24,30,34,37-heptamethyl-26[(1S)-1-methylpropyl]-33-(piperidine-1-carbonyl)-6,9,12,15,18,21,24,27,30,34,37-undecazaspiro[4.33]octatriacontane-7,10,13,16,19,22,25,28,31,35,38-undecone] ([NMeL]I[Sar][Sar][NMeCha][Sar][hPhe(3-Cl-4-CF3)][X74][Ac5c][NMeChg][NMeD]-Piperidide; lactam N-11)",8.24
8,CCCOC[C@H]1C(=O)N(C)CC(=O)N[C@@H](CCc2ccc(C(F)(F)F)c(Cl)c2)C(=O)N2CCC[C@H]2C(=O)NC2(CCCC2)C(=O)N(C)[C@@H](C2CCCC2)C(=O)N(C)[C@H](C(=O)N2C3CCC2COC3)CC(=O)N(C)[C@@H](CCC(C)C)C(=O)N[C@@H]([C@@H](C)CC)C(=O)N(C)[C@@H](C)C(=O)N2CC[C@H]2C(=O)N1C [Compound 1154] ([NMehLeu]I[NMeA][Aze][NMeS](Propyl)[Sar][hPhe(3-Cl-4-CF3)]P[Ac5c][NMeGly(cPent)][NMeD]-{3Oxa8azabicyclo(3.2.1)octane}; lactam N-11),8.62
9,CC[C@H](C)[C@@H]1NC(=O)[C@H](CC(C)C)N(C)C(=O)C[C@@H](C(=O)N2CCCCC2)N(C)C(=O)[C@H](CC(C)C)N(C)C(=O)C2(CCCC2)NC(=O)[C@@H]2CCCN2C(=O)[C@H](CCc2ccc(C(F)(F)F)c(Cl)c2)NC(=O)CN(C)C(=O)[C@H](CC2CCCCC2)N(C)C(=O)[C@@H]2CCN2C(=O)[C@H](C)N(C)C1=O [Compound 1657] ([NMeL]I[NMeA][Aze][NMeCha][Sar][hPhe(3-Cl-4-CF3)]P[Ac5c][NMeL][NMeD]-Piperidide; lactam N-11),8.55
10,CCCCN1CC(=O)N(C)CC(=O)N(C)[C@@H](COCCC(C)C)C(=O)N(C)CC(=O)N[C@@H](CCc2ccc(C(F)(F)F)c(Cl)c2)C(=O)N(C)[C@@H](COCC(C)(C)O)C(=O)NC(C)(C)C(=O)N(C)[C@@H](C(C)C)C(=O)N[C@H](C)CC(=O)N(C)[C@@H](CC(C)C)C(=O)N[C@@H]([C@@H](C)CC)C1=O [Compound 1505] (cyclo([Aib][NMeV][d(β3hA)][NMeL]I[NBuGly][Sar][NMeS](Isopentyl)[Sar][hPhe(3-Cl-4-CF3)][NMeS](CH2CMe2OH))),6.66
11,CCCC[C@H]1C(=O)N(C)CC(=O)N[C@@H](CCc2ccc(C(F)(F)F)c(Cl)c2)C(=O)N2CCC[C@H]2C(=O)NC2(CCCC2)C(=O)N(C)[C@@H](C(C)C)C(=O)N(C)[C@H](C(=O)N2CCCCC2)CC(=O)N(C)[C@@H](CC(C)C)C(=O)N[C@@H]([C@@H](C)CC)C(=O)N(C)[C@@H](C)C(=O)N2CC[C@H]2C(=O)N1C [Compound 1712] ([NMeL]I[NMeA][Aze][NMeNle][Sar][hPhe(3-Cl-4-CF3)]P[Ac5c][NMeV][NMeD]-Piperidide; lactam N-11),8.01
12,"CC[C@H](C)[C@@H]1NC(=O)[C@H](CC(C)C)N(C)C(=O)C[C@@H](C(=O)N2CCCCC2)N(C)C(=O)[C@H](C2CCCCC2)N(C)C(=O)C2(CCCC2)NC(=O)[C@H](CC=C2CN(C(=O)OC(C)(C)C)C2)N(C)C(=O)[C@H](CCc2ccc(C(F)(F)F)c(Cl)c2)NC(=O)CN(C)C(=O)[C@H](CC2CCCCC2)N(C)C(=O)CN(C)C(=O)CN(C)C1=O [Compound 2050, tert-butyl 3-[2-[(8S,11S,17S,26S,29S,33S,36S)-11-[2-[3-chloro-4-(trifluoromethyl)phenyl]ethyl]-36-cyclohexyl-17-(cyclohexylmethyl)-29-isobutyl-9,15,18,21,24,30,34,37-octamethyl-26-[(1S)-1-methylpropyl]-7,10,13,16,19,22,25,28,31,35,38-undecaoxo-33-(piperidine-1-carbonyl)-6,9,12,15,18,21,24,27,30,34,37-undecazaspiro[4.33]octatriacontan-8-yl]ethylidene]azetidine-1-carboxylate] ([NMeL]I[Sar][Sar][NMeCha][Sar][hPhe(3-Cl-4-CF3)][X45][Ac5c][NMeChg][NMeD]-Piperidide; lactam N-11)",7.29
13,"CC[C@H](C)[C@@H]1NC(=O)[C@H](CC(C)C)N(C)C(=O)C[C@@H](C)N(C)C(=O)[C@H](C2CCCC2)N(C)C(=O)C2(CCC2)NC(=O)[C@@H]2CC(F)(F)CN2C(=O)[C@H](CCc2cc(F)c(C(F)(F)F)c(F)c2)NC(=O)CN(C)C(=O)[C@H](Cc2ccc(C(F)(F)F)cc2)N(CC)C(=O)[C@@H]2CCN2C(=O)[C@H](C)N(C)C1=O [Compound 1049] (cyclo([Ac4c][NMeGly(cPent)][NMedβ3hAla][NMeL]I[NMeA][Aze][NEtPhe(4-CF3)][Sar][hPhe(3,5-F2-4-CF3)][Pro(4,4-F2)]))",8.43
14,CC[C@H](C)[C@@H]1NC(=O)[C@H](CC(C)C)N(C)C(=O)C[C@@H](C(=O)N2C3CCC2COC3)N(C)C(=O)[C@H]([C@@H](C)CC)N(C)C(=O)C2(CCCC2)NC(=O)[C@@H]2CCCN2C(=O)[C@H](CCc2ccc(C(F)(F)F)c(Cl)c2)NC(=O)CN(C)C(=O)[C@H](C2CCCC2)N(C)C(=O)[C@@H]2CCN2C(=O)[C@H](C)N(C)C1=O [Compound 1002] ([NMeL]I[NMeA][Aze][NMeGly(cPent)][Sar][hPhe(3-Cl-4-CF3)]P[Ac5c][NMeI][NMeD]-{3Oxa8azabicyclo(3.2.1)octane}; lactam N-11),8.68
15,CC[C@H](C)[C@@H]1NC(=O)[C@H](CCOC)N(C)C(=O)C[C@@H](C(=O)N2CCCCC2)N(C)C(=O)[C@H](C(C)C)N(C)C(=O)C2(CCCC2)NC(=O)[C@@H]2CCCN2C(=O)[C@H](CCc2ccc(C(F)(F)F)c(Cl)c2)NC(=O)CN(C)C(=O)[C@H](CC2CCCCC2)N(C)C(=O)[C@@H]2CCN2C(=O)[C@H](C)N(C)C1=O [Compound 397] ([NMehSer](Me)I[NMeA][Aze][NMeCha][Sar][hPhe(3-Cl-4-CF3)]P[Ac5c][NMeV][NMeD]-Piperidide; lactam N-11),8.64
